Data: patent publication US20130281528A1, “METHOD OF TREATING GASTRIC CANCER” (Niiki Pharma Acquisition Corp.2, priority 2010, published 2013)

Tested on: human gastric cancer cell line NCI-N87
Assay: ATCC's MTT Cell Proliferation Assay
Assay type: cell-based
Conditions: 72 hours post-treatment, concentration that inhibits cell growth by 50%
Description: To test the activities of sodium trans-[tetrachlorobis(1H-indazole)ruthenate(III)], ATCC's MTT Cell Proliferation Assay® was performed using human gastric cancer cell line NCI-N87 (differentiated carcinoma). Stock cultures were allowed to grow to 70-80% confluence for this study. The anti-proliferative activity of sodium trans-[tetrachlorobis(1H-indazole)ruthenate(III)], against the indicated cell line was evaluated in vitro using the ATCC's MTT Cell Proliferation Assay (Catalog No. 30-1010K). NCI-N87 was grown using RPMI1640 (Cell Gro 10-040-CV), with 1% of 1M HEPES, 1% sodium pyruvate, 1% of 45% glucose solution, 10% of heat-inactivated FBS and 1% of pen/strep/glutamine. […] The plates were left overnight at room temperature in the dark and was read on a plate reader using SoftMax® Pro (version 5.2, Molecular Devices).
The absorbance data was analyzed as follows: Absorbance values were converted to Percent of Control and plotted against test agent concentrations for IC50 calculations using SoftMax® Pro (version 5.2, Molecular Devices). […] Percent of Control values were calculated by dividing the absorbance values for each test well by the No Drug Control average (column 11 values; cells+vehicle control) and multiplying by 100. […]

For `[Cl][Ru-]([Cl])([Cl])[Cl].[Na+].c1ccc2[nH]ncc2c1.c1ccc2[nH]ncc2c1` [sodium trans-[tetrachlorobis(1H-indazole)ruthenate(III)]], which IC50 is on record?
The IC50 was 3.73 µM.
